The values that follow come from patent EP3478687B1 (Daewoong Pharmaceutical Co., Ltd., priority 2016, dated 2018).

Structures can show the parent of a compound that is named as a salt.

In assay [1] the target is T1, Recombinant purified human JAK3 (Homo sapiens, UniProt P52333).
T1 construct: purchased Promega V9441
T1 sequence (P52333 1-1124): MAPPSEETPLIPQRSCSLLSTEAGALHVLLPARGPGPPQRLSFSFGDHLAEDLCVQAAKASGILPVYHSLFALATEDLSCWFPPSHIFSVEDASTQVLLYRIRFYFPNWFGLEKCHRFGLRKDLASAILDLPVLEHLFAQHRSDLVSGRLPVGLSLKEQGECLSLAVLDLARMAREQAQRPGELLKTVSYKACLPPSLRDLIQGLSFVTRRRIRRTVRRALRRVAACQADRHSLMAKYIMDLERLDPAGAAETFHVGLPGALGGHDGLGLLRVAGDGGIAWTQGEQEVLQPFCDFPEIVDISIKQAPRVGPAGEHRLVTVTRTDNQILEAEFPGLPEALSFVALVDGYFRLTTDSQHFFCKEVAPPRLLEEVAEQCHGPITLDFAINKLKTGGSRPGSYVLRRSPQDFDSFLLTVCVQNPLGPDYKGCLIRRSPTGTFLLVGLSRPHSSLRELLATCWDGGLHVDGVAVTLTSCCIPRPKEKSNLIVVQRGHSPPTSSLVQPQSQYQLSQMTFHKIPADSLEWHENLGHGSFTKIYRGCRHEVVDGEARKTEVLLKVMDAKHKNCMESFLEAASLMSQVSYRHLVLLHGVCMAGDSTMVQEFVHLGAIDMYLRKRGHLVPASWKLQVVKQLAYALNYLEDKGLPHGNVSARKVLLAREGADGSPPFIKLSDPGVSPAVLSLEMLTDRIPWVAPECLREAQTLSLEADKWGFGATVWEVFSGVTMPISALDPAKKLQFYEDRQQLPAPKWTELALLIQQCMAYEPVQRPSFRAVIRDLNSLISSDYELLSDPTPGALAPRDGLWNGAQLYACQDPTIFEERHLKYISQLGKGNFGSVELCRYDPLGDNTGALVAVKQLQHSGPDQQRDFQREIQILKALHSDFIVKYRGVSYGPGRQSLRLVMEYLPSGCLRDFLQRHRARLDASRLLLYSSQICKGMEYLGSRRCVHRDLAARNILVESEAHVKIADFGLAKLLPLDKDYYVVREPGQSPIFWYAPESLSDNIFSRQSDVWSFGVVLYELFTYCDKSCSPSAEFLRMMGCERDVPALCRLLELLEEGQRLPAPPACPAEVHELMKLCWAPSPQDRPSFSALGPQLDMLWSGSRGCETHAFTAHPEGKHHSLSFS
Kind of assay: JAK3 kinase inhibitory activity, ADP-Glo kinase assay (Promega V9441). It counts as biochemical. Particulars: ATP 5 uM, 4 ng JAK3 per reaction, 1 hour 30 °C, chemiluminescence. In outline:
(§1)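 IC50 values come from ADP-Glo luminescence after 1 h kinase reactions at 30 °C in 1% DMSO on 0.2 µg/µL Poly(Glu4,Tyr1) substrate. ATP was 10 µM for BTK (8 ng, buffer containing MnCl2) and 5 µM for JAK3 (4 ng), in Tris-Cl pH 7.5/MgCl2/BSA/DTT.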
A general note: ADP-Glo first removes unused ATP, then detects ADP through luciferase.

For assay [2], the target named is T2, Recombinant purified human BTK (Homo sapiens, UniProt Q06187).
T2 construct: purchased Promega V9071
Kind of assay: BTK kinase inhibitory activity, ADP-Glo kinase assay (Promega V9071). It counts as biochemical. Particulars: ATP 10 uM, 8 ng BTK per reaction, 1 hour 30 °C, chemiluminescence. In short, it runs like this: as §1

T2 sequence (Q06187 whole entry): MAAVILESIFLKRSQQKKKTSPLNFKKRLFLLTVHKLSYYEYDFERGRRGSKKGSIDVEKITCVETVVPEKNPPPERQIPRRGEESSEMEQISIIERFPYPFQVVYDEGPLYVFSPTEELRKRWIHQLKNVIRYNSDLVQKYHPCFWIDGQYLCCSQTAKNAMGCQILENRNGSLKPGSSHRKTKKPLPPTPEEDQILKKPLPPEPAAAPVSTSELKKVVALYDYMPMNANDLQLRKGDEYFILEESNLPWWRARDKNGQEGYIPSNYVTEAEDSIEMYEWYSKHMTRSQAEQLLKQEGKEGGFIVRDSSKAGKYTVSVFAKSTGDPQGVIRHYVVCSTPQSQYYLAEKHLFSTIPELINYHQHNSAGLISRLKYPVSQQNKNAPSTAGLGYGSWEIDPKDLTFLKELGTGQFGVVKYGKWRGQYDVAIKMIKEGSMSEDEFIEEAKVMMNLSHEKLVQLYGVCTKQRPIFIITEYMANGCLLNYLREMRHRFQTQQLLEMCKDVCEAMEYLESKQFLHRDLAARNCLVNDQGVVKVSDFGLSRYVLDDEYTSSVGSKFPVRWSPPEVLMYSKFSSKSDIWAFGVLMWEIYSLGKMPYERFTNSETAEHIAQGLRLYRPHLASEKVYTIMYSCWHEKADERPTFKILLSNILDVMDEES

In the case of `C=CC(=O)N1CCC[C@@H](Nc2nc(Nc3cnn(C4CC4)c3)nc3[nH]cc(C#N)c23)C1` [Example 89, (R)-4-((1-acryloylpiperidin-3-yl)amino)-2-((1-cyclopropyl-1H-pyrazol-4-yl)amino)-7H-pyrrolo[2,3-d]pyrimidine-5-carbonitrile], the values for the IC50 in assay [1] and in assay [2] were 0.138 nM and 0.864 nM, respectively.

Consider `C=CC(=O)N1CCC[C@@H](Nc2nc(Nc3cnn(CC(F)F)c3)nc3[nH]nc(Cl)c23)C1` [Example 90, (R)-1-(3-((3-chloro-6-((1-(2,2-difluoroethyl)-1H-pyrazol-4-yl)amino)-1H-pyrazolo [3,4-d]pyrimidin-4-yl)amino)piperidin-1-yl)prop-2-en-1-one hydrochloride], for which the IC50 in assay [1] came to 0.5 nM; in assay [2], 1 nM.

Turning to `C=CC(=O)N1CCC[C@@H](Nc2nc(Nc3cnn(CC)c3)nc3[nH]nc(Cl)c23)C1` [Example 91, (R)-1-(3-((3-chloro-6-((1-ethyl-1H-pyrazol-4-yl)amino)-1H-pyrazolo[3,4-d]pyrimidin-4-yl)amino)piperidin-1-yl)prop-2-en-1-one hydrochloride], the IC50 in assay [1] and in assay [2] was 1.1 nM throughout.

As to `C=CC(=O)N1CC[C@@H](C)[C@@H](Nc2nc(Nc3cnn(CC)c3)nc3[nH]nc(Cl)c23)C1` [Example 92, 1-((3R,4R)-3-((3-chloro-6-((1-ethyl-1H-pyrazol-4-yl)amino)-1H-pyrazolo[3,4-d]pyrimidin-4-yl)amino)-4-methylpiperidin-1-yl)prop-2-en-1-one], the IC50 in assay [1] turned out to be 4.5 nM; in assay [2] it was 2.1 nM.

For `C=CC(=O)N1CC[C@@H](C)[C@@H](Nc2nc(Nc3cnn(CC(F)F)c3)nc3[nH]nc(Cl)c23)C1` [Example 93, 1-((3R,4R)-3-((3-chloro-6-((1-(2,2-difluoroethyl)-1H-pyrazol-4-yl)amino)-1H-pyrazolo [3,4-d]pyrimidin-4-yl)amino)-4-methylpiperidin-1-yl)prop-2-en-1-one], the IC50 in assay [1] was found to be 2 nM; in assay [2] it was 1.3 nM.

Regarding `C=CC(=O)N1CC[C@@H](C)[C@@H](Nc2nc(Nc3cnn(C4CC4)c3)nc3[nH]nc(Cl)c23)C1` [Example 94, 1-((3R,4R)-3-((3-chloro-6-((1-cyclopropyl-1H-pyrazol-4-yl)amino)-1H-pyrazolo[3,4-d]pyrimidin-4-yl)amino)-4-methylpiperidin-1-yl)prop-2-en-1-one], the results for the IC50 in assay [1] and in assay [2] were 4.5 nM and 1.7 nM, respectively.

As to `C=CC(=O)N1CCC[C@@H](Nc2nc(Nc3cnn(CCN(CC)CC)c3)nc3[nH]cc(Cl)c23)C1` [Example 95, (R)-1-(3-((5-chloro-2-((1-(2-(diethylamino)ethyl)-1H-pyrazol-4-yl)amino)-7H-pyrrolo[2,3-d]pyrimidin-4-yl)amino)piperidin-1-yl)prop-2-en-1-one], the half-maximal inhibitory concentration (IC50) in assay [1] came out at 0.5 nM; in assay [2], 5.9 nM.

On to `C=CC(=O)N1CCC[C@@H](Nc2nc(Nc3cnoc3)nc3[nH]cc(Cl)c23)C1` [Example 96, (R)-1-(3-((5-chloro-2-(isoxazol-4-ylamino)-7H-pyrrolo[2,3-d]pyrimidin-4-yl)amino)piperidin-1-yl)prop-2-en-1-one], for which the figures for the IC50 in assay [1] and in assay [2] were 0.7 nM and 24 nM, respectively.

For the compound `C=CC(=O)N1CCC[C@@H](Nc2nc(Nc3ccc(N4CCOCC4)cc3F)nc3[nH]cc(Cl)c23)C1` [Example 97], the IC50 was over 80 nM in assay [1] and 708 nM in assay [2].

`C=CC(=O)N1CCC[C@@H](Nc2nc(Nc3ccc(N4CCOCC4)c(F)c3)nc3[nH]cc(Cl)c23)C1` [Example 98, (R)-1-(3-((5-chloro-2-((3-fluoro-4-morpholinophenyl)amino)-7H-pyrrolo [2,3-d]pyrimidin-4-yl)amino)piperidin-1-yl)prop-2-en-1-one]: the values for the 50% inhibitory concentration (IC50) in assay [1] and in assay [2] were 2.4 nM and 14.1 nM, respectively.

Usually IC50 stands for the concentration at which inhibition is half-maximal.
